Data as given in patent publication US20260132128A1, “COMPOUND FOR RECOVERING P53 MUTATION FUNCTION AND USE THEREOF” (SHENZHEN ZHONGGE BIOLOGICAL TECHNOLOGY CO., LTD., priority 2022, published 2026).
Marks after values point to notes of the source that are not given here.

Columns and labels:
p53 Y220C = target: T1, p53 Y220C (Homo sapiens, UniProt P04637, Y220C); assay: DNA binding test (HTRF): binding of P53Y220C protein to DNA; type: biochemical; settings: multiple ratio of EC50 of the compound to the reference compound, DNA binding test
T1 construct: a truncated mutant containing only amino acids 94-312 of p53; made in house; host or cells: E. coli

NUGC-3 cells = assay: NUGC-3 cell proliferation assay (CTG); type: cell-based, human; settings: for GI50: 6 days, CTG; for Compound GI50 (nM)/Reference compound GI50 (nM): multiple ratio of GI50 of the compound to the reference compound
How it was run: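 NUGC-3 cells (250/well), plated overnight, were exposed 6 days at 37° C to compound, 10 doses of 1:3 dilutions from 10 μM top final. Viability by CellTiter-Glo luminescence; inhibition relative to 0.1% DMSO and blank, GI50 from variable-slope nonlinear fit.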

[1] = Liver microsome stability test, human (HLM); type: in vitro ADME; settings: human liver microsomes, NADPH; read-out: T1/2 (min) Human
Protocol: The 10 mM test compound/ketanserin (Energy Chemical, Cat. No. E020711) stock solution was diluted with acetonitrile to 0.5 mM compound/reference compound. The frozen 100 mM NADPH (MCE, Cat. No. HYF003/CS-4998) was diluted with phosphate buffer solution to a concentration of 6 mM; 20 mg/mL HLM (BioIVT, Cat. No. X008067) or MLM (BioIVT, Cat. No. M00501) was diluted with phosphate buffer solution to a concentration of 0.75 mg/ml, and added to a 96-round well plate, respectively, and shaken evenly on an oscillator at 600 rpm. The above oscillated samples were pipetted 3 times with an electric pipettor and dispensed into a new 96-well plate (containing NADPH group (n=2), NADPH-free group was added at 0 and 45 min (n=1)), and there were a total of 5 groups of 0, 5, 15, 30 and 45 min, respectively. After pre-incubation of the 5 groups of samples at 37° C. for 5 min, glacial acetonitrile was quickly added to the 0 min group for precipitation, and after rapid vortexing, K-Buffer or NADPH was added with an electric pipettor. The remaining groups were sequentially added with 6 mM NADPH to start the reaction in the order of 45, 30, 15 and 5 min samples, and K-Buffer solution was added to the NADPH-free group. After mixing at 1000 rpm in an oscillating mixer for 10 s, they were continuously incubated at 37° C. for the corresponding time. The reaction was terminated by quickly adding glacial acetonitrile internal standard using an electric pipettor; after vortexing at 900 rpm for 10 seconds, heat sealing was performed, oscillation was performed on an oscillator for 10 minutes, centrifugation was performed at 4000 rpm for 50 minutes, the supernatant was collected and diluted with pure water, and the test compound and the reference compound were quantified by LC-MS/MS analysis.

Structure (SMILES)	half-life [1]	Compound EC50 (nM)/Reference compound EC50 (nM) (p53 Y220C)	GI50 (NUGC-3 cells; Homo sapiens, NUGC-3, 144 h)	Compound GI50 (nM)/Reference compound GI50 (nM) (NUGC-3 cells)	GI50 (NUGC-3 cells)
CNC(=O)c1ccc(NCC#Cc2nc3c(N[C@@H]4CCN(C)C[C@@H]4F)cccn3c2CC(F)(F)F)c(OC)c1 [Compound 5]	–	B (B: EC50 of the reference compound<EC50 of the compound≤3.0*EC50 of the reference compound)	1000 to 5000 nM	B (B: GI50 of the reference compound < GI50 of the compound ≤ 3.0 * GI50 of the reference compound)	–
[2H]C([2H])([2H])NC(=O)c1ccc(NCC#Cc2cc3c(NC4CCC(N5CC6(COC6)C5)CC4F)cccn3c2CC(F)(F)F)c(OC([2H])([2H])[2H])c1 (single isomer, unassigned) [Compound 74d]	55.8 min	A (A: EC50 of the compound≤EC50 of the reference compound)	< 1000 nM	A (A: GI50 of the compound ≤ GI50 of the reference compound)	–
CNC(=O)c1ccc(NCC#Cc2nc3c(NC4CCC(N5CC6(COC6)C5)CC4F)cccn3c2CC(F)(F)F)c(OC)c1 (single isomer, unassigned) [Compound 35-6i]	–	B (B: EC50 of the reference compound<EC50 of the compound≤3.0*EC50 of the reference compound)	–	A (A: GI50 of the compound ≤ GI50 of the reference compound)	< 1000 nM

More lines, main results first:

half-life [1]	Structure (SMILES)	Compound EC50 (nM)/Reference compound EC50 (nM) (p53 Y220C)	GI50 (NUGC-3 cells; Homo sapiens, NUGC-3, 144 h)	Compound GI50 (nM)/Reference compound GI50 (nM) (NUGC-3 cells)	GI50 (NUGC-3 cells)
44 min	[2H]C([2H])([2H])NC(=O)c1ccc(NCC#Cc2nc3c(NC4CC[C@@H](N5CC6(COC6)C5)C[C@@H]4F)cccn3c2CC(F)(F)F)c(OC([2H])([2H])[2H])c1 (stereo partly shown) [Compound 64]	B (B: EC50 of the reference compound<EC50 of the compound≤3.0*EC50 of the reference compound)	< 1000 nM	B (B: GI50 of the reference compound < GI50 of the compound ≤ 3.0 * GI50 of the reference compound)	–
37.5 min	CNC(=O)c1ccc(NCC#Cc2nc3c(NC4CC[C@@H](N5CC6(COC6)C5)C[C@@H]4F)cccn3c2CC(F)(F)F)c(OCF)c1 (stereo partly shown) [Compound 58]	B (B: EC50 of the reference compound<EC50 of the compound≤3.0*EC50 of the reference compound)	< 1000 nM	B (B: GI50 of the reference compound < GI50 of the compound ≤ 3.0 * GI50 of the reference compound)	–
32 min	COc1cc(C(=O)NC2CC2)ccc1NCC#Cc1nc2c(NC3CC[C@@H](N4CC5(COC5)C4)C[C@@H]3F)cccn2c1CC(F)(F)F (stereo partly shown) [Compound 54]	B (B: EC50 of the reference compound<EC50 of the compound≤3.0*EC50 of the reference compound)	< 1000 nM	C (C: GI50 of the compound ≥ 3 * GI50 of the reference compound)	–
